Measurements taken from ChEMBL document CHEMBL3763124, “N-Benzylbenzamides: A Novel Merged Scaffold for Orally Available Dual Soluble Epoxide Hydrolase/Peroxisome Proliferator-Activated Receptor γ Modulators” (J Med Chem, 2016).
In brackets after ≈: the same amount, converted by molar mass. Activity calls are given as the source filed them. The rule behind the calls is not given here.

Assays:
[1] = Cmax in RjOrl:Swiss (CD-1) mouse plasma at 30 mg/kg, po; type: ADME, organism-based; design: dose 30 mg/kg, route oral
[2] = system: Mus musculus; test: Upregulation of LXRalpha regulated ABCA1 expression in C57BL/6JRj mouse liver at 30 mg/kg/day, po administered with drinking water measured after 2 weeks by qPCR method; type: functional, organism-based
[3] = system: Mus musculus; test: Upregulation of LXRalpha regulated ApoE expression in C57BL/6JRj mouse liver at 30 mg/kg/day, po administered with drinking water measured after 2 weeks by qPCR method; type: functional, organism-based
[4] = target: Free fatty acid receptor 1 (Mus musculus) (UniProt Q76JU9); test: Partial agonist activity at mouse free fatty acid receptor 1 expressed in HEK293 cells assessed as inositol phosphate 1 accumulation incubated for 30 mins; type: functional, cell-based
[5] = system: Mus musculus; test: Upregulation of PPARalpha gene expression in C57BL/6JRj mouse liver at 30 mg/kg/day, po administered with drinking water after 2 weeks by qPCR method; type: functional, organism-based
[6] = target: Free fatty acid receptor 1 (Homo sapiens) (UniProt O14842); test: Partial agonist activity at human free fatty acid receptor 1 expressed in HEK293 cells assessed as inositol phosphate 1 accumulation incubated for 30 mins; type: functional, cell-based
[7] = Apparent volume of distribution during terminal phase in RjOrl:Swiss (CD-1) mouse plasma at 30 mg/kg, po; type: ADME, organism-based; settings: read-out: Vz/F
[8] = Apparent oral clearance in RjOrl:Swiss (CD-1) mouse plasma at 30 mg/kg; type: ADME, organism-based
[9] = system: HepG2; test: Cytotoxicity against human HepG2 cells assessed as cell viability up to 30 uM after 48 hrs by WST-1 assay; type: cell-based; settings: hepg2, 48 h
[10] = system: Mus musculus; test: In vivo transactivation of PPARgamma in C57BL/6JRj mouse assessed as increase in PGC-1alpha expression in liver at 30 mg/kg/day, po administered with drinking water measured after 2 weeks by qPCR method; type: functional, organism-based
[11] = Solubility of the compound in water by microplate reader analysis; type: physicochemical
[12] = Drug level in supernatant of African green monkey COS7 cells treated with Ethyl 2-Ethyl 3-[4-(N-(4-methoxy(2-trifluoromethyl)benzyl)-benzamide)]propanoate at 10 uM after 12 hrs by HPLC analysis; type: ADME, cell-based; settings: chlorocebus aethiops, cos-7, 12 h
[13] = system: Mus musculus; test: Upregulation of PPARgamma gene expression in C57BL/6JRj mouse liver at 30 mg/kg/day, po administered with drinking water measured after 2 weeks by qPCR method; type: functional, organism-based
[14] = target: T1, Peroxisome proliferator-activated receptor delta (Homo sapiens, UniProt Q03181); test: Transactivation of human PPARdelta expressed in African green monkey COS7 cells incubated overnight by dual-glo luciferase reporter gene assay; type: cell-based; settings: cos-7
T1 sequence (Q03181 whole entry): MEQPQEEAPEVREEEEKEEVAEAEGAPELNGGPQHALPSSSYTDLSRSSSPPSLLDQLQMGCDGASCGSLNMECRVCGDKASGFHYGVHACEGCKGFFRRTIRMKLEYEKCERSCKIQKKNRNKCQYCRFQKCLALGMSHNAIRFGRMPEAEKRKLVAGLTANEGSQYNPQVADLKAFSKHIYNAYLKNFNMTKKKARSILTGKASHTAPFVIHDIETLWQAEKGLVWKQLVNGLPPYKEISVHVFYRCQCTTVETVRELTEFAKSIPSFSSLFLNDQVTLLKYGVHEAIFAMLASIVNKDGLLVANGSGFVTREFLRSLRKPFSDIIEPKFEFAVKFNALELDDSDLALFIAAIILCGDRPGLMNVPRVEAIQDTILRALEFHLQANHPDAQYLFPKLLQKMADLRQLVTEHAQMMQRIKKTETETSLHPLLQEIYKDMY

[15] = target: T2, Peroxisome proliferator-activated receptor alpha (Homo sapiens) (UniProt Q07869); test: Transactivation of human PPARalpha expressed in African green monkey COS7 cells at 10 uM incubated overnight by dual-glo luciferase reporter assay; type: cell-based; settings: COS-7
T2 sequence (whole entry): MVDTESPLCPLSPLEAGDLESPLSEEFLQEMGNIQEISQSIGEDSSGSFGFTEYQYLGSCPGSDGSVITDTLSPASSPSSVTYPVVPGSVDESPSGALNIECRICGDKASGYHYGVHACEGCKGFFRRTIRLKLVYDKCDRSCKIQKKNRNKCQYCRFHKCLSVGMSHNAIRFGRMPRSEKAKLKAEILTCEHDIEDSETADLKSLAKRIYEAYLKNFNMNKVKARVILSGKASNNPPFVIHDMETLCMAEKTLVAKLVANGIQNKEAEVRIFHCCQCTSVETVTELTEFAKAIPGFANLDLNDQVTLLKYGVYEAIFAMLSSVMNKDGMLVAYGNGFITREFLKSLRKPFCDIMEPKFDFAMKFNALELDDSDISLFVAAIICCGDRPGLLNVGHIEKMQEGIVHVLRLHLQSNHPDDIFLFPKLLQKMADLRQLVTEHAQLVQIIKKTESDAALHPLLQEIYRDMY

[16] = system: Mus musculus; test: In vivo transactivation of PPARgamma in C57BL/6JRj mouse assessed as increase in CD36 expression in liver at 30 mg/kg/day, po administered with drinking water measured after 2 weeks by qPCR method; type: functional, organism-based
[17] = system: Mus musculus; test: In vivo transactivation of PPARgamma in C57BL/6JRj mouse assessed as increase in sEH expression in liver at 30 mg/kg/day, po administered with drinking water after 2 weeks by qPCR method; type: functional, organism-based
[18] = AUC (0 to infinity) in RjOrl:Swiss (CD-1) mouse plasma at 30 mg/kg, po; type: ADME, organism-based; design: dose 30 mg/kg, time infinity, route oral
[19] = system: Mus musculus; test: In vivo transactivation of PPARgamma in C57BL/6JRj mouse assessed as increase in LXRalpha expression in liver at 30 mg/kg/day, po administered with drinking water measured after 2 weeks by qPCR method; type: functional, organism-based

Chain of Free fatty acid receptor 1 (Homo sapiens) (O14842 whole entry): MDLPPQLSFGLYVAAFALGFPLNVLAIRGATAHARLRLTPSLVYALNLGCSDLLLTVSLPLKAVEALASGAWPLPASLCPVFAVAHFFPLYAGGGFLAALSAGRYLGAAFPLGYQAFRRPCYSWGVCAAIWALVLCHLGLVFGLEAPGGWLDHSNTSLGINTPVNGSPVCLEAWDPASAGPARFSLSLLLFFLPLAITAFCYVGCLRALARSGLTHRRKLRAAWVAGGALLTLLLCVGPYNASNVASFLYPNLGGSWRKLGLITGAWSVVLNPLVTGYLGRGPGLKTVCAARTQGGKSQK
Chain of Free fatty acid receptor 1 (Mus musculus) (Q76JU9 whole entry): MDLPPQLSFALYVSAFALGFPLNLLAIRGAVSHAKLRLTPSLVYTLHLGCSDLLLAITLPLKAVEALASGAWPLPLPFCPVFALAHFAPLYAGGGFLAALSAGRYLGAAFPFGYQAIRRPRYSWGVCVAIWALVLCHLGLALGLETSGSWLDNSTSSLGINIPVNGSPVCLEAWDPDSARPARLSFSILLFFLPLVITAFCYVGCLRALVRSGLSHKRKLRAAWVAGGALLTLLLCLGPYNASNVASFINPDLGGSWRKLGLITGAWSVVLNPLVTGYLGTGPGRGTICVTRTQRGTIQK

CCC(Cc1ccc(C(=O)NCc2ccc(OC)cc2C(F)(F)F)cc1)C(=O)O (centres undefined)
Cmax [1]: 29100 ng/mL | Activity [2]: inactive | Activity [3]: inactive | Activity [4]: Active | Activity [5]: Active | Activity [6]: Active | Vd/F [7]: 2 L/kg | CL/F [8]: 5 mL/min/kg | Activity [9]: Non-toxic | Activity [10]: Active | solubility [11]: 375 µM (≈ 154 µg/mL) | Drug metabolism [12]: metabolite_detected | Activity [13]: Active | EC50 [14]: Not Active | Activity [15]: 29% | Activity [16]: Active | Activity [17]: Active | AUC(0-inf) [18]: 94400 ng·h/mL | Activity [19]: Active
